{"source": "ChEMBL document CHEMBL1201862", "about": "“PubChem BioAssay data set” (2004)", "assay_in_all_cases": "DTP human tumour cell line panel, 48 h", "key": {"786-0": {"system": "786-0"}, "A549": {"system": "A549"}, "LOX IMVI": {"system": "LOX IMVI"}, "M19-MEL": {"system": "M19-MEL"}, "MOLT-4": {"system": "MOLT-4"}, "Malme-3M": {"system": "Malme-3M"}, "NCI-H23": {"system": "NCI-H23"}, "NCI-H522": {"system": "NCI-H522"}, "OVCAR-3": {"system": "OVCAR-3"}, "SF-268": {"system": "SF-268"}, "SK-MEL-2": {"system": "SK-MEL-2"}, "SK-MEL-5": {"system": "SK-MEL-5"}, "SN12C": {"system": "SN12C"}, "SNB-75": {"system": "SNB-75"}, "UACC-257": {"system": "UACC-257"}, "U-251": {"system": "U-251"}, "UO-31": {"system": "UO-31"}, "DU-145": {"system": "DU-145"}, "HOP-92": {"system": "HOP-92"}, "OVCAR-4": {"system": "OVCAR-4"}}, "note": "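Growth conditions: 96-well plates. Treatment: test compound, 48 hours, 5 concentrations. Analysis: linear interpolation between bracketing concentrations; unreached endpoints set to highest concentration. GI50: concentration for 50% inhibition of growth.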 Active and inactive are the calls of the source. Cut-off read from the data, not from the text of the source: active = GI50 up to about 1.1 µM and inactive = higher."}
{"compound": "O=C1C(Br)=CC2(C=C1Br)CCNC1=C2C(=O)c2ccccc2C1=O", "values": [{"measurement": "GI50", "setting": "786-0", "result": "11.9 µM (inactive)"}, {"measurement": "GI50", "setting": "A549", "result": "22.8 µM (inactive)"}, {"measurement": "GI50", "setting": "LOX IMVI", "result": "4.24 µM (inactive)"}, {"measurement": "GI50", "setting": "M19-MEL", "result": "4.66 µM (inactive)"}, {"measurement": "GI50", "setting": "MOLT-4", "result": "3.75 µM (inactive)"}, {"measurement": "GI50", "setting": "Malme-3M", "result": "18.1 µM (inactive)"}, {"measurement": "GI50", "setting": "NCI-H23", "result": "7.6 µM (inactive)"}, {"measurement": "GI50", "setting": "NCI-H522", "result": "3.58 µM (inactive)"}, {"measurement": "GI50", "setting": "OVCAR-3", "result": "29.6 µM (inactive)"}, {"measurement": "GI50", "setting": "SF-268", "result": "11.2 µM (inactive)"}, {"measurement": "GI50", "setting": "SK-MEL-2", "result": "14.9 µM (inactive)"}, {"measurement": "GI50", "setting": "SK-MEL-5", "result": "11.6 µM (inactive)"}, {"measurement": "GI50", "setting": "SN12C", "result": "6.68 µM (inactive)"}, {"measurement": "GI50", "setting": "SNB-75", "result": "> 100 µM (inactive)"}, {"measurement": "GI50", "setting": "UACC-257", "result": "14.1 µM (inactive)"}]}
{"compound": "Nc1ncnc2c1ncn2CCCC(c1ccccc1)P(=O)(O)O", "note": "(configuration not stated)", "values": [{"measurement": "GI50", "setting": "786-0", "result": "> 100 µM (inactive)"}, {"measurement": "GI50", "setting": "A549", "result": "> 100 µM (inactive)"}, {"measurement": "GI50", "setting": "LOX IMVI", "result": "> 100 µM (inactive)"}, {"measurement": "GI50", "setting": "M19-MEL", "result": "> 100 µM (inactive)"}, {"measurement": "GI50", "setting": "Malme-3M", "result": "> 100 µM (inactive)"}, {"measurement": "GI50", "setting": "NCI-H23", "result": "> 100 µM (inactive)"}, {"measurement": "GI50", "setting": "NCI-H522", "result": "> 100 µM (inactive)"}, {"measurement": "GI50", "setting": "OVCAR-3", "result": "> 100 µM (inactive)"}, {"measurement": "GI50", "setting": "SF-268", "result": "> 100 µM (inactive)"}, {"measurement": "GI50", "setting": "SK-MEL-2", "result": "> 100 µM (inactive)"}, {"measurement": "GI50", "setting": "SK-MEL-5", "result": "> 100 µM (inactive)"}, {"measurement": "GI50", "setting": "SN12C", "result": "> 100 µM (inactive)"}, {"measurement": "GI50", "setting": "SNB-75", "result": "> 100 µM (inactive)"}, {"measurement": "GI50", "setting": "U-251", "result": "> 100 µM (inactive)"}, {"measurement": "GI50", "setting": "UACC-257", "result": "> 100 µM (inactive)"}, {"measurement": "GI50", "setting": "UO-31", "result": "> 100 µM (inactive)"}]}
{"compound": "NC(CSS(=O)(=O)c1ccccc1)C(=O)O", "note": "(configuration not stated)", "values": [{"measurement": "GI50", "setting": "786-0", "result": "> 10 µM (inactive)"}, {"measurement": "GI50", "setting": "A549", "result": "> 10 µM (inactive)"}, {"measurement": "GI50", "setting": "DU-145", "result": "> 10 µM (inactive)"}, {"measurement": "GI50", "setting": "HOP-92", "result": "> 10 µM (inactive)"}, {"measurement": "GI50", "setting": "LOX IMVI", "result": "> 10 µM (inactive)"}, {"measurement": "GI50", "setting": "MOLT-4", "result": "> 10 µM (inactive)"}, {"measurement": "GI50", "setting": "Malme-3M", "result": "> 10 µM (inactive)"}, {"measurement": "GI50", "setting": "NCI-H23", "result": "> 10 µM (inactive)"}, {"measurement": "GI50", "setting": "NCI-H522", "result": "> 10 µM (inactive)"}, {"measurement": "GI50", "setting": "OVCAR-3", "result": "> 10 µM (inactive)"}, {"measurement": "GI50", "setting": "OVCAR-4", "result": "> 10 µM (inactive)"}, {"measurement": "GI50", "setting": "SF-268", "result": "> 10 µM (inactive)"}, {"measurement": "GI50", "setting": "SK-MEL-2", "result": "> 10 µM (inactive)"}, {"measurement": "GI50", "setting": "SK-MEL-5", "result": "> 10 µM (inactive)"}, {"measurement": "GI50", "setting": "SN12C", "result": "> 10 µM (inactive)"}, {"measurement": "GI50", "setting": "SNB-75", "result": "> 10 µM (inactive)"}, {"measurement": "GI50", "setting": "U-251", "result": "> 10 µM (inactive)"}, {"measurement": "GI50", "setting": "UACC-257", "result": "> 10 µM (inactive)"}, {"measurement": "GI50", "setting": "UO-31", "result": "> 10 µM (inactive)"}]}
{"compound": "O=C(CSCC(=O)N/N=C\\c1cc(Cl)cc(Cl)c1O)N/N=C\\c1cc(Cl)cc(Cl)c1O", "values": [{"measurement": "GI50", "setting": "786-0", "result": "6.46 µM (inactive)"}, {"measurement": "GI50", "setting": "A549", "result": "18.7 µM (inactive)"}, {"measurement": "GI50", "setting": "DU-145", "result": "8.91 µM (inactive)"}, {"measurement": "GI50", "setting": "HOP-92", "result": "5.73 µM (inactive)"}, {"measurement": "GI50", "setting": "LOX IMVI", "result": "1.38 µM (inactive)"}, {"measurement": "GI50", "setting": "MOLT-4", "result": "1.63 µM (inactive)"}, {"measurement": "GI50", "setting": "Malme-3M", "result": "1.87 µM (inactive)"}, {"measurement": "GI50", "setting": "NCI-H23", "result": "10.1 µM (inactive)"}, {"measurement": "GI50", "setting": "NCI-H522", "result": "1.71 µM (inactive)"}, {"measurement": "GI50", "setting": "OVCAR-3", "result": "1.69 µM (inactive)"}, {"measurement": "GI50", "setting": "OVCAR-4", "result": "2.42 µM (inactive)"}, {"measurement": "GI50", "setting": "SF-268", "result": "2.32 µM (inactive)"}, {"measurement": "GI50", "setting": "SK-MEL-2", "result": "2.51 µM (inactive)"}, {"measurement": "GI50", "setting": "SK-MEL-5", "result": "3.42 µM (inactive)"}, {"measurement": "GI50", "setting": "SN12C", "result": "4.33 µM (inactive)"}, {"measurement": "GI50", "setting": "SNB-75", "result": "12.4 µM (inactive)"}, {"measurement": "GI50", "setting": "U-251", "result": "0.515 µM (active)"}, {"measurement": "GI50", "setting": "UACC-257", "result": "5.28 µM (inactive)"}, {"measurement": "GI50", "setting": "UO-31", "result": "4 µM (inactive)"}]}
{"compound": "CC(C)CCNC(=O)c1ccc(CNC(=O)/C=C/c2ccc3c(c2)-c2ccccc2C3)cc1", "values": [{"measurement": "GI50", "setting": "786-0", "result": "33.9 µM (inactive)"}, {"measurement": "GI50", "setting": "A549", "result": "41.5 µM (inactive)"}, {"measurement": "GI50", "setting": "DU-145", "result": "44.6 µM (inactive)"}, {"measurement": "GI50", "setting": "HOP-92", "result": "41.2 µM (inactive)"}, {"measurement": "GI50", "setting": "LOX IMVI", "result": "50.6 µM (inactive)"}, {"measurement": "GI50", "setting": "MOLT-4", "result": "36.2 µM (inactive)"}, {"measurement": "GI50", "setting": "Malme-3M", "result": "17.3 µM (inactive)"}, {"measurement": "GI50", "setting": "NCI-H23", "result": "94 µM (inactive)"}, {"measurement": "GI50", "setting": "NCI-H522", "result": "22.6 µM (inactive)"}, {"measurement": "GI50", "setting": "OVCAR-3", "result": "23.4 µM (inactive)"}, {"measurement": "GI50", "setting": "OVCAR-4", "result": "22.9 µM (inactive)"}, {"measurement": "GI50", "setting": "SF-268", "result": "38.7 µM (inactive)"}, {"measurement": "GI50", "setting": "SK-MEL-2", "result": "> 100 µM (inactive)"}, {"measurement": "GI50", "setting": "SK-MEL-5", "result": "36.9 µM (inactive)"}, {"measurement": "GI50", "setting": "SN12C", "result": "> 100 µM (inactive)"}, {"measurement": "GI50", "setting": "SNB-75", "result": "23.7 µM (inactive)"}, {"measurement": "GI50", "setting": "U-251", "result": "24.7 µM (inactive)"}, {"measurement": "GI50", "setting": "UACC-257", "result": "95.9 µM (inactive)"}, {"measurement": "GI50", "setting": "UO-31", "result": "42 µM (inactive)"}]}
{"compound": "CCCCCC(/C=C/C1CCC(=O)C1CC#C[Si](C)(C)C)OCc1ccccc1", "note": "(configuration not stated)", "values": [{"measurement": "GI50", "setting": "786-0", "result": "14.6 µM (inactive)"}, {"measurement": "GI50", "setting": "A549", "result": "21.5 µM (inactive)"}, {"measurement": "GI50", "setting": "DU-145", "result": "31.8 µM (inactive)"}, {"measurement": "GI50", "setting": "HOP-92", "result": "12.1 µM (inactive)"}, {"measurement": "GI50", "setting": "LOX IMVI", "result": "15.7 µM (inactive)"}, {"measurement": "GI50", "setting": "MOLT-4", "result": "> 37.8 µM (inactive)"}, {"measurement": "GI50", "setting": "Malme-3M", "result": "15.9 µM (inactive)"}, {"measurement": "GI50", "setting": "NCI-H23", "result": "22.2 µM (inactive)"}, {"measurement": "GI50", "setting": "NCI-H522", "result": "14 µM (inactive)"}, {"measurement": "GI50", "setting": "OVCAR-3", "result": "17.5 µM (inactive)"}, {"measurement": "GI50", "setting": "OVCAR-4", "result": "26.9 µM (inactive)"}, {"measurement": "GI50", "setting": "SF-268", "result": "14.3 µM (inactive)"}, {"measurement": "GI50", "setting": "SK-MEL-2", "result": "15.5 µM (inactive)"}, {"measurement": "GI50", "setting": "SK-MEL-5", "result": "13.2 µM (inactive)"}, {"measurement": "GI50", "setting": "SN12C", "result": "19.8 µM (inactive)"}, {"measurement": "GI50", "setting": "SNB-75", "result": "16.6 µM (inactive)"}, {"measurement": "GI50", "setting": "U-251", "result": "19 µM (inactive)"}, {"measurement": "GI50", "setting": "UACC-257", "result": "17.2 µM (inactive)"}, {"measurement": "GI50", "setting": "UO-31", "result": "15.5 µM (inactive)"}]}
